Consider 46 molecules from ChEMBL document CHEMBL1149579, “N-(5-chloro-2-(hydroxymethyl)-N-alkyl-arylsulfonamides as gamma-secretase inhibitors” (Bioorg Med Chem Lett, 2007).

For orientation: IC50 means the concentration at which inhibition is half-maximal.

Structures are written as SMILES.

System in one data set: not listed separately
Briefly: Drug level in Tg2576 betaAPP swedish transgenic mouse brain at 500 umol/kg, po after 3 hrs. The class given is ADME, organism-based. The following applies: read-out: Drug uptake.
Take `CCC[C@@H](C)N(c1cc(Cl)ccc1CO)S(=O)(=O)c1ccc(Cl)cc1`: the concentration at 3 h worked out at 5.2 µM.

The target of another data set is Gamma-secretase. Briefly: Inhibition of gamma secretase-mediated beta-APP cleavage in human H4 cells assessed by measuring Abeta40 production by ELISA. The class given is cell-based.
Details: not given
(In general: ELISA stands for enzyme-linked immunosorbent assay.)
The molecule `CCN(c1cc(Cl)ccc1CO)S(=O)(=O)c1ccc(C)cc1` came in with a 50% inhibitory concentration (IC50) of 1100 nM.
The same measure, in the same setting: next, `CCCCN(c1cc(Cl)ccc1CO)S(=O)(=O)c1ccc(Cl)cc1`: 140 nM.
The molecule `CCCC(C)N(c1cc(Cl)ccc1CO)S(=O)(=O)c1ccc(Br)cc1` (centres undefined) yielded a half-maximal inhibitory concentration (IC50) of 56 nM.
The same measure, in the same setting: the same measure for `CC(C1CCCCC1)N(c1cc(Cl)ccc1CO)S(=O)(=O)c1ccc(Cl)cc1` (centres undefined): 33 nM; for `Cc1ccc(S(=O)(=O)N(CCCC(C)C)c2cc(Cl)ccc2CO)cc1`: 920 nM.
As for `CCCC(C)N(c1cc(Cl)ccc1CO)S(=O)(=O)c1ccc(C#N)cc1` (centres undefined), 180 nM corresponded to half-maximal inhibition (IC50).
On to `CCCC(C)N(c1cc(Cl)ccc1CO)S(=O)(=O)c1ccc(CC)cc1` (centres undefined), for which half-maximal inhibition (IC50) was put at 360 nM.
Same read-out and setting: next, `CCCN(c1cc(Cl)ccc1CO)S(=O)(=O)c1ccc(C)cc1`: 750 nM; `CCC[C@H](C)N(c1cc(Cl)ccc1CO)S(=O)(=O)c1ccc(C)cc1`: 3700 nM; `Cc1ccc(S(=O)(=O)N(CC2CCCCC2)c2cc(Cl)ccc2CO)cc1`: 1000 nM.
With `CC[C@@H](C)N(c1cc(Cl)ccc1CO)S(=O)(=O)c1ccc(C)cc1`, the IC50 came out at 100 nM.
In turn, `Cc1ccc(S(=O)(=O)N(c2cc(Cl)ccc2CO)C(C)CC(C)(C)C)cc1` (centres undefined) returned an IC50 of 350 nM.
On the same count and under the same terms, the same measure for `CC(CCCF)N(c1cc(Cl)ccc1CO)S(=O)(=O)c1ccc(Cl)cc1` (centres undefined): 7 nM; for `CCC(CC)N(c1cc(Cl)ccc1CO)S(=O)(=O)c1ccc(C)cc1`: 1000 nM.
Still for that read-out and setting: next, `CC[C@H](C)N(c1cc(Cl)ccc1CO)S(=O)(=O)c1ccc(C)cc1`: 1300 nM.
The same measure, in the same setting: the same measure for `CCN(c1cc(Cl)ccc1CO)S(=O)(=O)c1ccc(Cl)cc1`: 13 nM.
The molecule `CCCC(C)N(c1cc(Cl)ccc1CO)S(=O)(=O)c1ccc(OC)cc1` (centres undefined) showed a half-maximal inhibitory concentration (IC50) of 1300 nM.
Molecule `CCCC(C)N(c1cc(Cl)ccc1CO)S(=O)(=O)c1ccc(Cl)c(Cl)c1` (centres undefined) gave an IC50 of 240 nM.
Same read-out and setting: next, `Cc1ccc(S(=O)(=O)N(CC(C)C)c2cc(Cl)ccc2CO)cc1`: 700 nM.
On the same count and under the same terms, the same measure for `CCCC(C)N(c1cc(Cl)ccc1CO)S(=O)(=O)c1cccc(C)c1` (centres undefined): 1200 nM; for `Cc1ccc(S(=O)(=O)N(CCC(C)(C)C)c2cc(Cl)ccc2CO)cc1`: 2000 nM.
In the case of `C=CC[C@@H](C)N(c1cc(Cl)ccc1CO)S(=O)(=O)c1ccc(Cl)cc1`, inhibition was half-maximal at 14 nM (IC50).
On the same count and under the same terms, next, `CCC[C@@H](C)N(c1cc(Cl)ccc1CO)S(=O)(=O)c1ccc(C)cc1`: 24 nM; `CC(c1ccc(Cl)cc1)N(c1cc(Cl)ccc1CO)S(=O)(=O)c1ccc(Cl)cc1` (centres undefined): 22 nM; `CC(Cc1ccccc1)N(c1cc(Cl)ccc1CO)S(=O)(=O)c1ccc(Cl)cc1` (centres undefined): 41 nM.
The molecule `CCCC(C)N(c1cc(Cl)ccc1CO)S(=O)(=O)c1ccc(C)cc1` (centres undefined) registered an IC50 of 40 nM.
`CC(c1ccc2ccccc2c1)N(c1cc(Cl)ccc1CO)S(=O)(=O)c1ccc(Cl)cc1` (centres undefined) yielded an IC50 of 100 nM.
Same read-out and setting: next, `CC(C1CCCC1)N(c1cc(Cl)ccc1CO)S(=O)(=O)c1ccc(Cl)cc1` (centres undefined): 14 nM; `CCCC(C)N(c1cc(Cl)ccc1CO)S(=O)(=O)c1ccc(Cl)cc1` (centres undefined): 19 nM; `CC(CCF)N(c1cc(Cl)ccc1CO)S(=O)(=O)c1ccc(Cl)cc1` (centres undefined): 25 nM.
In turn, `Cc1ccc(S(=O)(=O)N(c2cc(Cl)ccc2CO)C(C)C2CCCCC2)cc1` (centres undefined) gave an IC50 of 190 nM.
`CCCC(C)N(c1cc(Cl)ccc1CO)S(=O)(=O)c1ccccc1` (centres undefined) gave a half-inhibitory concentration (IC50) of 1200 nM.
As for `C[C@H](CCc1ccccc1)N(c1cc(Cl)ccc1CO)S(=O)(=O)c1ccc(Cl)cc1`, the 50% inhibitory concentration (IC50) was 4 nM.
For the molecule `CC(C1CC1)N(c1cc(Cl)ccc1CO)S(=O)(=O)c1ccc(Cl)cc1` (centres undefined), the IC50 stood at 49 nM.
With `C/C=C/C(C)N(c1cc(Cl)ccc1CO)S(=O)(=O)c1ccc(Cl)cc1` (centres undefined), the IC50 was determined as 140 nM.
On the same count and under the same terms, next, `CCCC(C)N(c1cc(Cl)ccc1CO)S(=O)(=O)c1ccc(C(F)(F)F)cc1` (centres undefined): 72 nM.
On the same count and under the same terms, next, `CC(C1CCC1)N(c1cc(Cl)ccc1CO)S(=O)(=O)c1ccc(Cl)cc1` (centres undefined): 12 nM; `CCCCN(c1cc(Cl)ccc1CO)S(=O)(=O)c1ccc(C)cc1`: 1300 nM.
Consider `C=C(C)CN(c1cc(Cl)ccc1CO)S(=O)(=O)c1ccc(C)cc1`, for which the concentration for half-maximal inhibition (IC50) amounted to 400 nM.
On the same count and under the same terms, next, `CCCC(C)N(c1cc(Cl)ccc1CO)S(=O)(=O)c1c(Cl)cc(Cl)cc1Cl` (centres undefined): > 25000 nM; `CCCC(C)N(c1cc(Cl)ccc1CO)S(=O)(=O)c1ccc(C(C)C)cc1` (centres undefined): 720 nM.
Same read-out and setting: the same measure for `CCCC(C)N(c1cc(Cl)ccc1CO)S(=O)(=O)c1ccc(F)cc1` (centres undefined): 66 nM.
Regarding `CCCC(C)N(c1cc(Cl)ccc1CO)S(=O)(=O)c1ccc(Cl)cc1Cl` (centres undefined), the IC50 stood at 560 nM.
The molecule `CCCC[C@@H](C)N(c1cc(Cl)ccc1CO)S(=O)(=O)c1ccc(Cl)cc1` displayed a half-inhibitory concentration (IC50) of 5 nM.
The same measure, in the same setting: the same measure for `CC(C)CC(C)N(c1cc(Cl)ccc1CO)S(=O)(=O)c1ccc(Cl)cc1` (centres undefined): 23 nM.

The subject of another data set is Mus musculus. Briefly: Decrease in amyloid beta level in Tg2576 betaAPP swedish transgenic mouse brain at 500 umol/kg, sc twice a day for 5 days. In kind it is functional. The arrangement: scale not given: the % may be the effect or the level left.
Details: not given
As to `CCC[C@@H](C)N(c1cc(Cl)ccc1CO)S(=O)(=O)c1ccc(Cl)cc1`, the Activity is listed as 38%.

System in a further data set: not listed separately
Briefly: Protein binding in mouse plasma at 10 ug/mL. In kind it is ADME, cell-free. The following applies: read-out: PPB.
With `CCC[C@@H](C)N(c1cc(Cl)ccc1CO)S(=O)(=O)c1ccc(Cl)cc1`, the fraction unbound at 10 ug/mL was < 0.01.

System in the next data set: not listed separately
Briefly: Drug level in Tg2576 betaAPP swedish transgenic mouse plasma at 500 umol/kg, po after 3 hrs.
Details: not given
The class given is ADME, organism-based.
`CCC[C@@H](C)N(c1cc(Cl)ccc1CO)S(=O)(=O)c1ccc(Cl)cc1`: the concentration at 3 h came out at 1.6 µM.

System in a further data set: not listed separately
Briefly: Drug level in Tg2576 betaAPP swedish transgenic mouse brain at 500 umol/kg, sc twice a day for 5 days. The following applies: read-out: Drug uptake. In kind it is ADME, organism-based.
For the molecule `CCC[C@@H](C)N(c1cc(Cl)ccc1CO)S(=O)(=O)c1ccc(Cl)cc1`, the concentration at 120 h turned out to be 14 µM.

In another data set the test system is Mus musculus. Briefly: Decrease in amyloid beta level in Tg2576 betaAPP swedish transgenic mouse brain at 500 umol/kg, po after 3 hrs. In kind it is functional. Also on record: scale not given: the % may be the effect or the level left.
Details: not given
Take `CCC[C@@H](C)N(c1cc(Cl)ccc1CO)S(=O)(=O)c1ccc(Cl)cc1`: the Activity is 25%.

System in another data set: not listed separately
Briefly: Protein binding in rat plasma at 10 ug/mL. In kind it is ADME, cell-free. Particulars: read-out: PPB.
For the molecule `CCC[C@@H](C)N(c1cc(Cl)ccc1CO)S(=O)(=O)c1ccc(Cl)cc1`, the fraction unbound at 10 ug/mL was < 0.01.

System in a further data set: not listed separately
Briefly: Drug level in Tg2576 betaAPP swedish transgenic mouse plasma at 500 umol/kg, sc twice a day for 5 days. In kind it is ADME, organism-based.
Details: not given
As for `CCC[C@@H](C)N(c1cc(Cl)ccc1CO)S(=O)(=O)c1ccc(Cl)cc1`, the concentration at 120 h came to 21 µM.

System in another data set: not listed separately
Briefly: Protein binding in human plasma at 10 ug/mL. In kind it is ADME, cell-free. Particulars: read-out: PPB.
On to `CCC[C@@H](C)N(c1cc(Cl)ccc1CO)S(=O)(=O)c1ccc(Cl)cc1`, for which the fraction unbound at 10 ug/mL is < 0.01.
